Converted amounts (≈) assume the structure as drawn.
Experiments:
[1] = Maximum solubility in water at 25° C. (saturated solution, residual mass after infrared drying); assay type: physicochemical; settings: for solubility / Solubility 25° C. in g/kg (amino acid) / increase in solubility compared to the respective amino acid / Solubility 25° C. in g/kg (corresponding Lac-AA): 25° C.; for solubility: stated in description; for Solubility 25° C. in g/kg (amino acid) / increase in solubility compared to the respective amino acid / Solubility 25° C. in g/kg (corresponding Lac-AA): water; for Solubility 25° C. in g/kg (amino acid): native amino acid; for Solubility 25° C. in g/kg (corresponding Lac-AA): Lac-AA sodium salt; for maximum solubilities obtained in water: separate experiments comparing Leu, Leu sodium salt and lac-Leu sodium salt
Procedure: After sedimentation, the solution was dried using infrared (120° C., 120 min) and the residual mass was determined in g/kg.

[2] = Maximum solubility in Cellvento 4Feed depleted in Ile and Leu (turbidity measurement); assay type: physicochemical; settings: for solubility at 10 min: aqueous with cosolvent or surfactant or cyclodextrin, thermodynamic from solid, pH 7.0+/-0.2, 25° C., soluble = turbidity below 5 NTU; for solubility at 10 min / times more soluble than the native amino acid in Cellvento 4Feed depleted in Ile/Leu: 113 g/L feed; for times more soluble than the native amino acid in Cellvento 4Feed depleted in Ile/Leu: pH 7.0+/-0.2
Procedure: Increasing amounts of the Lac-Leu and Lac-Ile and salts thereof were added to a cell culture feed formulation (Cellvento® 4Feed) depleted in Ile and Leu. Similarly, increasing amounts of Ile and Leu were added to the same feed formulation as a control. The total concentration of this feed formulation was 113 g/L and the pH was 7.0+/−0.2. In small scale experiments, after each addition of either the amino acid or the Lac-AA, the feed was agitated for 10 mins and turbidity was measured. The experiments were performed at room temperature (25° C.).
A solution having a turbidity below 5 NTU is considered soluble.

[3] = Stability of Lac-AA in Cellvento 4Feed-Ile/Leu by LC-MS; assay type: physicochemical; settings: stored up to 3 months at 4° C. or RT protected from light
Procedure: To monitor the stability of Lac-AA in the complex feed mixture, a targeted quantitative LC-MS method was developed. Serial dilutions of Lac-Leu and Lac-Ile in Cellvento® 4Feed—Ile/Leu pH 7.0 were performed from 100 mM to 100 μM to determine the linearity of the method. A 200-fold dilution in water was performed prior to LC-MS analysis. The method was developed on a UHPLC (Vanquish, Thermo Fisher) coupled with an ESI-Q-ToF mass spectrometer (Impact II, Bruker Daltonics).
Briefly, 1 μL of sample were loaded in 99.9% buffer A (20 mM ammonium formate/0.1% FA) onto a XSelect HSS T3 column (2.1×150 mm, 3.5 μm, Waters) thermostated at 40° C. with a flowrate of 300 μL/min and eluted with a multistep gradient of buffer B (100% methanol) presented in Table 2.
LC-MS analyses were performed using the Impact II mass spectrometer equipped with an ESI source (Bruker Daltonics). MS acquisition was performed in negative mode with end plate offset and capillary voltages set at 500 and 3500 V, respectively. Nebulizer and dry gas (250° C.) were set at 1.4 bar and 9.0 L/min, respectively. MS spectra were acquired over the m/z range 20-1000 with a scan rate of 5 Hz. […]
Using the method previously developed, the stability of Lac-Ile and Lac-Leu in Cellvento® 4Feed-Ile/Leu was monitored in samples stored at 4° C. and RT protected from light for 3 months.

[4] = tested on: CHOK1GS suspension cell line expressing a human IgG1; assay: Fed-batch cell culture with Lac-AA replacing the amino acid in the feed, CHOK1GS clone; assay type: cell-based; settings: for concentration of Ile in the spent medium / concentration of Leu in the spent medium / effect on viable cell density (VCD) compared to positive control: 17-days fed-batch; for effect on viable cell density (VCD) compared to positive control: Lac-AA replacing amino acid in feed; for IgG titer compared to control: day 14; for increase of free lactate (area under the curve of lactate concentration): supernatant over the fed-batch process
Procedure: For cell culture experiments, a CHOK1GS suspension cell line expressing a human IgG1, was used. Cells were cultivated in quadruplicate in Cellvento® 4CHO medium (Merck Darmstadt, Germany) using 50 mL spin tubes with a starting culture volume of 30 mL and a seeding density of 2×10^5 cells/mL.
Incubation was carried out at 37° C., 5% CO2, 80% humidity and an agitation of 320 rpm. The Lac-AA were added in the Feed (Cellvento® 4Feed depleted in Ile and leu) instead of their respective amino acids. The pH of all the feeds was neutral (pH 7.0+/−0.2). The positive control contained the normal amino acids whereas the negative control contained the feed depleted in the respective amino acid and without addition of Lac-AA. Feeding was carried out at days 3, 5, 7, 10, 12 and 14 at the following v/v ratios (3, 3, 6, 3, 3 and 3%). Glucose was quantified daily and adjusted to 6 g/L using a 400 g/L glucose solution. The experiment was repeated at least 3 times.
The viable cell density (VCD) and viability were evaluated with a Vi-CELL XR (Beckman Coulter, Fullerton, CA). Metabolite concentrations were monitored using a Cedex Bio HT (Roche Diagnostics, Mannheim, Germany) based on spectrophotometric and turbidometric methods. Quantification of amino acids was carried out via UPLC after derivatization with the AccQ·TagUltra® reagent kit. Derivatization, chromatography and data analysis were carried out following the supplier recommendations (Waters, Milford, MA).

[5] = tested on: CHOK1GS suspension cell line expressing a human IgG1; assay: Quality of the antibody produced in the fed-batch process (glycosylation, aggregation/fragmentation, charge variants); assay type: cell-based; settings: IgG1 purified from supernatant
Procedure: The quality of the antibody produced in the control fed-batch process (with feed containing Ile and Leu) was compared to the quality of the antibody produced with feed depleted in either Leu and Ile and supplemented with either Lac-Leu or Lac-Ile.
The antibody was purified from the cell culture supernatant using protein A PhyTips® (PhyNexus Inc, San Jose, CA). Glycosylation patterns were analyzed by capillary gel electrophoresis with laser-induced fluorescence (CGE-LIF) after derivatization using the GlykoPrep®-plus Rapid N-Glycan Sample Preparation kit with 8-aminopyrene-1,3,6-trisulfonic acid trisodium (APTS) (Prozyme, Hayward, CA) according to the manufacturer's instructions. […] After a cleaning step to remove the remaining APTS, the relative amounts of glycans were determined using the Pharmaceutical Analysis System CESI8000 Plus (Sciex, Washington, USA) with a LIF detector (Ex: 488 nm, Em: 520 nm). […]
Antibody aggregation and fragmentation were measured using size exclusion chromatography on an Water Acquity UPLC system using a TSKgel SuperSW3000 column (Tosoh Bioscience). […] The sample concentration was adjusted to 1.0 mg/mL after the IgG purification using the storage buffer and the detection was performed using the absorbance at 214 nm. […]

[6] = tested on: CHODG44 clone producing an IgG1; assay: Fed-batch experiments with a CHODG44 clone; assay type: cell-based
Description: Results (FIG. 16, 17, 18) indicate a similar VCD and IgG titer for the Lac-Leu and Lac-Ile conditions compared to the control positive control. […] The explanation for this difference in behavior between CHOK1GS cells and this DG44 cell line is currently unknown. The Leu and Ile concentrations in the spent media (FIG. 19 and) decreased during the first day of the FB culture to finally increase again after D7. This behavior is similar to the behavior seen for CHOK1GS cells and indicate a slow release process of the free AA from the derivatives.

CC[C@H](C)[C@H](N)C(=O)O [Isoleucine]
solubility [1]: 32.4 g/kg | Solubility 25° C. in g/kg (amino acid) [1]: 32.4 g/kg | solubility at 10 min [2]: ~105 mM (≈ 13.8 mg/mL)

CC[C@H](C)[C@H](NC(=O)C(C)O)C(=O)O (stereo partly drawn) [Lac-Ile, N-lactoyl isoleucine]
increase in solubility compared to the respective amino acid [1]: 20 fold | turbidity at maximum tested concentration ([2]; 951 mM in Cellvento 4Feed depleted in Ile/Leu): below 5 NTU | times more soluble than the native amino acid in Cellvento 4Feed depleted in Ile/Leu [2]: at least 9 times | solubility at 10 min [2]: ≥ 951 mM | stability in Cellvento 4Feed-Ile/Leu [3]: stable | concentration of Ile in the spent medium [4]: decreased very rapidly until day 7 and increased again afterwards | concentration of Leu in the spent medium [4]: moderately decreased | effect on viable cell density (VCD) compared to positive control [4]: no effect on the peak VCD or overall VCD profile | IgG titer compared to control [4]: slight, but not significant higher titer | increase of free lactate (area under the curve of lactate concentration) [4]: 37% | glycosylation, high and low molecular weight species and charge variants of the IgG1 versus control condition [5]: no difference | IgG titer compared to positive control [6]: similar | VCD compared to positive control [6]: similar

CC(C)C[C@H](NC(=O)C(C)O)C(=O)O (stereo partly drawn) [Lac-Leu, N-lactoyl leucine]
increase in solubility compared to the respective amino acid [1]: around 30 fold | times more soluble than the native amino acid in Cellvento 4Feed depleted in Ile/Leu [2]: 6.6 times | solubility at 10 min [2]: ~600 mM (≈ 122 mg/mL) | stability in Cellvento 4Feed-Ile/Leu [3]: stable | concentration of Ile in the spent medium [4]: decreased after day 7 | concentration of Leu in the spent medium [4]: decreased very rapidly until day 7 and increased again afterwards | effect on viable cell density (VCD) compared to positive control [4]: positive effect on the duration of the plateau phase | viable cell density in plateau phase ([4]; day 10 to day 14): ~15 million cells/mL | IgG titer compared to control [4]: slight, but not significant higher titer | increase of free lactate (area under the curve of lactate concentration) [4]: 20% | glycosylation, high and low molecular weight species and charge variants of the IgG1 versus control condition [5]: no difference | IgG titer compared to positive control [6]: similar | VCD compared to positive control [6]: similar

CC(O)C(=O)NC(Cc1ccccc1)C(=O)[O-].[Na+] (stereo not drawn) [Lac-Phe sodium salt]
Solubility 25° C. in g/kg (corresponding Lac-AA) [1]: 483.1 g/kg

CC(O)C(=O)NC(Cc1ccc(O)cc1)C(=O)[O-].[Na+] (stereo not drawn) [Lac-Tyr sodium salt]
Solubility 25° C. in g/kg (corresponding Lac-AA) [1]: 101.9 g/kg

CC(C)C[C@H](N)C(=O)[O-].[Na+] [Leu sodium salt]
maximum solubilities obtained in water [1]: 86.0 g/kg

CC(C)C[C@H](N)C(=O)O [Leucine]
solubility [1]: about 22.1 g/kg | maximum solubilities obtained in water [1]: 22.1 g/kg | Solubility 25° C. in g/kg (amino acid) [1]: 22.1 g/kg | solubility at 10 min [2]: ~90 mM (≈ 11.8 mg/mL)

CSCC[C@H](N)C(=O)O [Methionine]
Solubility 25° C. in g/kg (amino acid) [1]: 52.9 g/kg

N[C@@H](Cc1ccccc1)C(=O)O [Phenylalanine]
Solubility 25° C. in g/kg (amino acid) [1]: 26.0 g/kg

CC(C)[C@H](N)C(=O)O [Valine]
Solubility 25° C. in g/kg (amino acid) [1]: 57.8 g/kg

— patent publication US12709733B2, “Cell culture media” (Merck Patent GmbH, priority 2019, dated 2026)
